Assay [1] deals with An. Vestitipennis. Particulars: stated as identical to night one of compound 1405; cited from earlier work.
Assay [2] concerns Ae. Aegypti, Isla Mujer strain (metabolically pyrethroid resistant). The assay can be described thus: Contact irritancy on metabolically resistant mosquitoes (Example 5). Format: in vivo. As for the experimental part:
(§1) Four compounds of formula (I) were tested for contact irritancy (i.e., movement away from the source after physical contact) at low doses on female Aedes aegypti (Thailand strain) mosquitoes. The contact irritant response was determined by use of the contact irritant assay disclosed by Grieco et al. in “A New Classification System for the Actions of IRS Chemicals Traditionally Used for Malaria Control,” Plos One, Issue 8 (2007) (available at www.plosone.org). The assay used was a cylindrical assembly that included a metal treatment end to which 10 mosquitoes were introduced and a clear receiving chamber. The treatment end included a netting strip (nylon organdy) that was treated with the insecticide of interest at the relevant dose. A butterfly valve separated the treatment end from the remainder of the assembly.
(§2) Each composition was applied to the netting strip at a varied dose via a 1.5 ml acetone solution. Four (4) treatment concentrations were used—0.0025 nmol/cm^2, 0.025 nmol/cm^2, 0.25 nmol/cm^2 and 2.5 nmol/cm^2. Netting was allowed to dry for 15 minutes prior to placement in the cylinder. Control assays were performed with netting treated with acetone only.
(§3) For each run, 10 mosquitoes were transferred into the treatment end of the assembly and, after 30 seconds, the butterfly valve was opened. The valve was closed after 10 minutes and the number of mosquitoes in the clear end (i.e., the number of escaped mosquitoes) was tested.
(§4) The contact irritancy protocol of Example 2 was used to determine contact irritancy against mosquitoes (Ae. Aegypti) that had acquired metabolic resistance against pyrethroids. Alphacypermethrin and transfluthrin were also tested. Three mosquito strains were tested—Houston which is pyrethroid susceptible, That which is pyrethroid tolerant and Isla Mujer which is metabolically pyrethroid resistant.

Assay [3] deals with female Aedes aegypti (Thailand strain) mosquitoes. The assay can be described thus: Contact irritancy and spatial repellency screening (Example 4). It is filed as in vivo. The note with it: Dosage 25 nmol/cm^2; mapped with 3000 other compounds. The procedure:
as §1
(§5) The four compounds of formula I described in Example 2 were tested for spatial repellency (directed movement away from the chemical source without the insect making physical contact with the treated surface) at low doses on female Aedes aegypti (Thailand strain) mosquitoes. The spatial repellency response was determined by use of the spatial repellency assay disclosed by Grieco et al. in “A New Classification System for the Actions of IRS Chemicals Traditionally Used for Malaria Control” in Plos One, Issue 8 (2007) (available at www.plosone.org) which is incorporated herein by reference for all relevant and consistent purposes. The assay used was a cylindrical assembly that included a treatment chamber at one end and a control chamber at the other end. The treatment chamber included a netting strip (nylon organdy) that was treated with the insecticide of interest at the relevant dose. The treatment chamber and control chamber were connected by a clear cylinder and were separated from the clear cylinder by butterfly valves. Twenty (20) mosquitoes were introduced into the clear central chamber and the butterfly valves were opened after 30 seconds. After 10 minutes, the valves were closed and the number of mosquitoes in each chamber was counted.
Dosage was 25 nmol/cm^2. Several known compounds were also mapped for comparison—alphacypermethrin, cypermethrin, propoxur, bendiocarb, permethrin, SS220, DDT, deet and chlorpyrifos.

For assay [4] the test system is unchanged. The experiment in a line: Contact irritancy assay on mosquitoes (Example 2). It is filed as in vivo. The note with it: netting treated at 0.0025-2.5 nmol/cm^2; 10 minutes. The procedure: as §1, §2, §3
Assay [5] has as its system Ae. aegypti Thai strain (pyrethroid tolerant). The experiment in a line: Toxicity assay on treated netting (Example 7), Thai strain. Format: in vivo. The procedure:
(§6) Several compounds were tested to determine their toxic effect on Ae. aegypti mosquitoes. Three mosquito strains were tested—Houston which is pyrethroid susceptible, That which is pyrethroid tolerant and Isla Mujer which is metabolically pyrethroid resistant.
(§7) The toxicity assay involved a single chamber to which treated netting was added. Twenty (20) mosquitoes were transferred to the chamber. After 1 hour, the number of knocked down mosquitoes was recorded and all mosquitoes were transferred to holding cartoons. The mosquitoes were given a 10% sucrose-soaked cotton ball and returned to the insectary. Mortaility was measured after 24 hours. A control assay using acetone-treated netting was used. Six replicates were performed at each treatment concentration.

Assay [6] has as its system female Aedes aegypti (Thailand strain) mosquitoes. The assay can be described thus: Spatial repellency assay on mosquitoes (Example 3). Format: in vivo. Particulars: netting treated at 0.0025-2.5 nmol/cm^2. The procedure: as §5
The compositions were applied to the net strips by the same methods and at the same concentrations as described in Example 2 above. […]

In assay [7] the test system is Ae. Aegypti, That strain (pyrethroid tolerant). The experiment in a line: Contact irritancy on pyrethroid tolerant mosquitoes (Example 5). Format: in vivo. The procedure:
as §1, §2, §3, §4

Assay [8] concerns Ae. aegypti Houston strain (pyrethroid susceptible). The assay can be described thus: Toxicity assay on treated netting (Example 7), Houston strain. It is filed as in vivo. As for the experimental part: as §6, §7
Assay [9] concerns Ae. aegypti Isla mujeres strain (metabolically pyrethroid resistant). The experiment in a line: Toxicity assay on treated netting (Example 7), Isla mujeres strain. It is filed as in vivo. The procedure:
as §6, §7

Assay [10] deals with Ae. Aegypti strains Houston, That and Isla Mujer. The experiment in a line: Spatial repellency on metabolically resistant mosquitoes (Example 6). It is filed as in vivo. The procedure:
as §5
The spatial repellency protocol of Example 3 was used to determine spatial repellency against mosquitoes (Ae. Aegypti) that had acquired metabolic resistance against pyrethroids. DDT and transfluthrin were also tested. Three mosquito strains were tested—Houston which is pyrethroid susceptible, That which is pyrethroid tolerant and Isla Mujer which is metabolically pyrethroid resistant.

Where [11] appears, read: Dose 0.025 nm/cm^2, Time 1 hour.
Where [12] appears, read: Dose 0.025 nm/cm^2, Time 24 hours.
The mark [13] stands for this setting: Dose 0.25 nm/cm^2, Time 24 hours.
Setting [14] is: Dose 2.5 nm/cm^2, Time 24 hours.
Setting [15] is: Dose 0.05 nm/cm^2, Time 24 hours.
The mark [16] stands for this setting: Dose 0.0725 nm/cm^2, Time 1 hour.
The mark [17] stands for this setting: Dose 0.0725 nm/cm^2, Time 24 hours.
The mark [18] stands for this setting: Dose 0.1 nm/cm^2, Time 24 hours.
Where [19] appears, read: Dose 0.125 nm/cm^2, Time 1 hour.
The mark [20] stands for this setting: Dose 0.125 nm/cm^2, Time 24 hours.
Where [21] appears, read: Dose 0.2 nm/cm^2, Time 24 hours.

Regarding `Clc1ccc(C(c2ccc(Cl)cc2)C(Cl)(Cl)Cl)cc1` [DDT, dichlorodiphenyltrichloroethane], in [1], the “reduction in entering populations observed with DDT” value is 97%.

For the molecule `CC1(C)C(C=C(F)F)C1C(=O)OCc1ccc(F)c(C(F)(F)F)c1F` (stereo not shown) [Compound 1403], in [2], the “contact irritancy, resistant strain (FIG. 4)” value was “effective in resistant strains”. In assay [3], the “contact irritancy and spatial repellency relative to screened compounds (FIG. 3)” value is “superior contact irritancy and spatial repellency relative to most screened compounds”. Moreover, the “contact irritancy (FIG. 1)” value in [4] is given as “showed contact irritancy at relatively low doses”. The “Thai (% dead (SE))” value in assay [5] (setting [11]) is given as 15%; in assay [5] (setting [12]), 0%; in assay [5] (Dose 0.25 nm/cm^2, Time 1 hour), 100%; in assay [5] (setting [13]) it was 100%; in assay [5] (Dose 2.5 nm/cm^2, Time 1 hour) it was 100%; in [5] (setting [14]) it was 100%. Moreover, the “spatial repellency, dose compared with DDT (FIG. 2)” value in [6] is reported as “showed repellency at a lower dose than DDT”. In addition, in [7], the “contact irritancy, tolerant strain (FIG. 4)” value was “contact irritants for tolerant strains”. Also, the “Houston (% dead (SE))” value in assay [8] (setting [11]) amounted to 11.76%; in assay [8] (setting [12]), 15.57%; in [8] (Dose 0.05 nm/cm^2, Time 1 hour), 51.3%; in assay [8] (setting [15]), 41.18%; in assay [8] (setting [16]), 100%; in assay [8] (setting [17]), 100%. Further, the “Houston (% dead (SE))” value stood at 100% in assay [8] (Dose 0.1 nm/cm^2, Time 1 hour); 100% in assay [8] (setting [18]); 100% in [8] (setting [19]); 100% in assay [8] (setting [20]); 100% in [8] (Dose 0.2 nm/cm^2, Time 1 hour); 100% in assay [8] (setting [21]). The “Houston (% dead (SE))” value in assay [8] (Dose 0.25 nm/cm^2, Time 1 hour) is 100%; in [8] (setting [13]), 100%; in assay [8] (Dose 2.5 nm/cm^2, Time 1 hour), 100%; in assay [8] (setting [14]), 100%. Further, the “Isla mujeres (% dead (SE))” value in assay [9] (setting [11]) was 0%; in [9] (setting [12]), 1.58%; in assay [9] (Dose 0.05 nm/cm^2, Time 1 hour), 0%; in [9] (setting [15]) it was 5.93%; in assay [9] (setting [16]) it was 0%; in [9] (setting [17]) it was 3.70%. In addition, the “Isla mujeres (% dead (SE))” value turned out to be 0% in assay [9] (Dose 0.1 nm/cm^2, Time 1 hour); 5.00% in [9] (setting [18]); 0% in assay [9] (setting [19]); 6.00% in [9] (setting [20]); 70% in [9] (Dose 0.2 nm/cm^2, Time 1 hour); 20% in assay [9] (setting [21]). The “Isla mujeres (% dead (SE))” value in assay [9] (Dose 0.25 nm/cm^2, Time 1 hour) came to 100%; in [9] (setting [13]), 100%; in [9] (Dose 2.5 nm/cm^2, Time 1 hour) it was 100%; in assay [9] (setting [14]) it was 100%. Further, the “toxicity to resistant populations compared with standard compounds” value in assay [9] (summary of Table 2) is “more toxic to resistant populations than permethrin, matfluthrin and transfluthrin”. The “spatial repellency, all strains (FIG. 5)” value in [10] is “spatial repellants for all strains”.
